pIC50: −log10 of the molar value. Like-named read-outs stand apart in the source and are kept apart here.
Assays:
[1] = target: T1, human BRD4 bromodomain II (Homo sapiens, UniProt O60885); assay: Bromodomain binding assay (AlphaScreen), BRD4 BDII
T1 construct: human BRD4 bromodomain II [based on Genbank NM_058243, residues 349-460]; host or cells: E. coli
Summary of the method: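 Tagged BRD4 BDI or BDII constructs, expressed in E. coli, competed against a K5/K8/K12/K16-acetylated biotin-H4 peptide. Proximity signal between bead pairs after room-temperature incubations gave concentration-response curves, from which IC50 was derived.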

[2] = system: human SKM-1 acute myeloid leukemia cells; assay: SKM-1 antiproliferation cell-based assay (ATPlite); settings: Homo sapiens
Summary of the method: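 Log-phase cells in RPMI 1640/15% FBS were seeded at 34722 cells/mL and exposed for 4 days to nine-concentration DMSO serial dilutions in triplicate. Viability was read as ATP luminescence (ATPlite 1step), and IC50 values came from variable-slope non-linear regression.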

[3] = BRD4 BDII AlphaScreen assay, read-out: BRD4 BD2 IC50
[4] = SKM-1, SKM-1 antiproliferation assay
[5] = AlphaScreen assay, Table C2, read-out: BRD4 BDII IC50
[6] = SKM-1, 96 h, SKM-1 antiproliferation assay, 4 days, Table C2

Compound	pIC50 [1, 3]	GI50 [2, 4]	pIC50 [1, 5]	GI50 [2, 6]
Cc1cc(-c2ccc(-n3ccn(C)c3=O)c(Cl)c2)c(O)c(-c2cc(Cl)cc(N3CCN(C(C)(C)C)CC3)c2)n1 [Example 999, 1-(4-(2-(3-(4-(tert-butyl)piperazin-1-yl)-5-chlorophenyl)-3-hydroxy-6-methylpyridin-4-yl)-2-chlorophenyl)-3-methyl-1H-imidazol-2(3H)-one]	8.00 to 9.00	0.3 to 30 nM	–	–
CC(C)[C@@H]1CN(c2cc(-c3cc(F)cc(-c4ccc(-n5ccn(C)c5=O)c(Cl)c4)c3O)cc3[nH]ncc23)CCN1 [Example 597, (R)-1-(3-chloro-5′-fluoro-2′-hydroxy-3′-(4-(3-isopropylpiperazin-1-yl)-1H-indazol-6-yl)-[1,1′-biphenyl]-4-yl)-3-methyl-1H-imidazol-2(3H)-one]	–	–	8.00 to 9.00	0.3 to 30 nM
Cc1cc(-c2cc(F)cc(-c3cccc(N4CCN(C(C)(C)C)CC4)c3)c2O)ccc1-n1ccn(C)c1=O [Example 949, 1-(3″-(4-(tert-butyl)piperazin-1-yl)-5′-fluoro-2′-hydroxy-3-methyl-[1,1′:3′,1″-terphenyl]-4-yl)-3-methyl-1,3-dihydro-2H-imidazol-2-one]	8.00 to 9.00	0.3 to 30 nM	–	–
Cc1cc(-c2cc(F)cc(-c3cccc(N4CCN(C(C)(C)C)CC4)c3)c2O)ncc1-n1ccn(C)c1=O [Example 940, 1-(6-(3′-(4-(tert-butyl)piperazin-1-yl)-5-fluoro-2-hydroxy-[1,1′-biphenyl]-3-yl)-4-methylpyridin-3-yl)-3-methyl-1H-imidazol-2(3H)-one]	< 7.00	300 to 3000 nM	–	–
CN1CCN(c2ccc(-c3cccc(-c4ccnc(N5CCCC(N)C5)c4)c3O)cc2Cl)C1=O (stereo not drawn) [Example 301, 1-(3′-(2-(3-aminopiperidin-1-yl)pyridin-4-yl)-3-chloro-2′-hydroxy-[1,1′-biphenyl]-4-yl)-3-methylimidazolidin-2-one]	–	–	8.00 to 9.00	30 to 300 nM
CN1CCN(c2ccc(-c3cccc(-c4cccc(N5CCNCC5)c4)c3O)cc2F)C1=O [Example 164, 1-(3-Fluoro-2′-hydroxy-3″-(piperazin-1-yl)-[1,1′:3′,1″-terphenyl]-4-yl)-3-methylimidazolidin-2-one]	–	–	8.00 to 9.00	300 to 3000 nM
CN1CCN(c2ccc(-c3cccc(-c4cc(C#N)cc(N5CCNCC5)c4)c3O)cc2Cl)C1=O [Example 331, 3″-chloro-2′-hydroxy-4″-(3-methyl-2-oxoimidazolidin-1-yl)-5-(piperazin-1-yl)-[1,1′:3′,1″-terphenyl]-3-carbonitrile]	–	–	8.00 to 9.00	30 to 300 nM
CC(=O)Nc1ccc(-c2cc(Cl)cc(-c3ccnc(N4CCNCC4)c3)c2O)cc1F [Example 268, N-(5′-chloro-3-fluoro-2′-hydroxy-3′-(2-(piperazin-1-yl)pyridin-4-yl)-[1,1′-biphenyl]-4-yl)acetamide]	–	–	8.00 to 9.00	30 to 300 nM
Cn1ccn(-c2ccc(-c3cc(F)cc(-c4ccnc(N5CC[C@H](N)C5)c4)c3O)cc2Cl)c1=O [Example 423, (S)-1-(3′-(2-(3-aminopyrrolidin-1-yl)pyridin-4-yl)-3-chloro-5′-fluoro-2′-hydroxy-[1,1′-biphenyl]-4-yl)-3-methyl-1H-imidazol-2(3H)-one]	–	–	9.00 to 11.00	0.3 to 30 nM
Cn1ccn(-c2ccc(-c3cc(F)cc(-c4ccnc(N5C[C@@H](O)[C@H](O)C5)c4)c3O)cc2Cl)c1=O [Example 726, 1-(3-chloro-3′-(2-((3R,4R)-3,4-dihydroxypyrrolidin-1-yl)pyridin-4-yl)-5′-fluoro-2′-hydroxy-[1,1′-biphenyl]-4-yl)-3-methyl-1H-imidazol-2(3H)-one]	–	–	9.00 to 11.00	0.3 to 30 nM
Cc1cc(-c2cc(F)cc(-c3ccnc(N4CCNCC4)c3)c2O)ccc1N1CCN(C)C1=O [Example 380, 1-(5′-fluoro-2′-hydroxy-3-methyl-3′-(2-(piperazin-1-yl)pyridin-4-yl)-[1,1′-biphenyl]-4-yl)-3-methylimidazolidin-2-one]	–	–	8.00 to 9.00	30 to 300 nM
CC(=O)Nc1ccc(-c2cccc(-c3cccc(N4CCN[C@H](C)C4)c3)c2O)cc1F [Example 193, (R)-N-(3-fluoro-2′-hydroxy-3″-(3-methylpiperazin-1-yl)-[1,1′:3′,1″-terphenyl]-4-yl)acetamide]	–	–	8.00 to 9.00	300 to 3000 nM
COc1c(-c2cccc(N3CCN(C(C)(C)C)CC3)c2)cc(F)cc1-c1ccc(-n2ccn(C)c2=O)c(Cl)c1 [Example 859]	7.00 to 8.00	30 to 300 nM	–	–
Cn1ccn(-c2ccc(-c3cc(F)cc(-c4ccccc4N4CCNCC4)c3O)cc2Cl)c1=O [Example 870]	8.00 to 9.00	300 to 3000 nM	–	–
Cn1ccn(-c2ccc(-c3cc(F)cc(-c4cccc(N5CCCN(C(C)(C)C)CC5)c4)c3O)cc2Cl)c1=O [Example 851, 1-(3″-(4-(tert-Butyl)-1,4-diazepan-1-yl)-3-chloro-5′-fluoro-2′-hydroxy-[1,1′:3′,1″-terphenyl]-4-yl)-3-methyl-1H-imidazol-2(3H)-one]	8.00 to 9.00	30 to 300 nM	–	–
CN(C)[C@H]1CCCN(c2cncc(-c3cc(F)cc(-c4ccc(-n5ccn(C)c5=O)c(Cl)c4)c3O)c2)C1 [Example 501, (S)-1-(3-chloro-3′-(5-(3-(dimethylamino)piperidin-1-yl)pyridin-3-yl)-5′-fluoro-2′-hydroxy-[1,1′-biphenyl]-4-yl)-3-methyl-1H-imidazol-2(3H)-one]	–	–	9.00 to 11.00	0.3 to 30 nM
Cn1ccn(-c2ccc(-c3cc(F)cc(-c4ccnc(N5CC6(CCNC6)CC5=O)c4)c3O)cc2Cl)c1=O (stereo not drawn) [Example 705, 2-(4-(3′-chloro-5-fluoro-2-hydroxy-4′-(3-methyl-2-oxo-2,3-dihydro-1H-imidazol-1-yl)-[1,1′-biphenyl]-3-yl)pyridin-2-yl)-2,7-diazaspiro[4.4]nonan-3-one]	–	–	9.00 to 11.00	30 to 300 nM
CC(=O)Nc1ccc(-c2cccc(-c3ccnc(N4CC5(CNC5)C4)c3)c2O)cc1F [Example 270, N-(3′-(2-(2,6-diazaspiro[3.3]heptan-2-yl)pyridin-4-yl)-3-fluoro-2′-hydroxy-[1,1′-biphenyl]-4-yl)acetamide]	–	–	8.00 to 9.00	300 to 3000 nM
COc1ncc(-c2cc(F)cc(-c3ccc(-n4ccn(C)c4=O)c(Cl)c3)c2O)cc1N1CC[C@@]2(CCCN2C(C)C)C1 [Example 957, (S)-1-(3-chloro-5′-fluoro-2′-hydroxy-3′-(5-(1-isopropyl-1,7-diazaspiro[4.4]nonan-7-yl)-6-methoxypyridin-3-yl)-[1,1′-biphenyl]-4-yl)-3-methyl-1,3-dihydro-2H-imidazol-2-one]	9.00 to 11.00	0.3 to 30 nM	–	–
CC(=O)Nc1ccc(-c2cccc(-c3cc(C)nc(N4CCNCC4)c3)c2O)cc1F [Example 244, N-(3-fluoro-2′-hydroxy-3′-(2-methyl-6-(piperazin-1-yl)pyridin-4-yl)-[1,1′-biphenyl]-4-yl)acetamide]	–	–	8.00 to 9.00	30 to 300 nM
Cn1ccn(-c2ccc(-c3cc(F)cc(-c4ccnc(N5CCNC(CCN)C5)c4)c3O)cc2Cl)c1=O (stereo not drawn) [Example 697, 1-(3′-(2-(3-(2-aminoethyl)piperazin-1-yl)pyridin-4-yl)-3-chloro-5′-fluoro-2′-hydroxy-[1,1′-biphenyl]-4-yl)-3-methyl-1H-imidazol-2(3H)-one]	–	–	8.00 to 9.00	30 to 300 nM
Cc1cc(-c2ccc(-n3ccn(C)c3=O)c(Cl)c2)c(O)c(-c2cnc(N)c(N3CCC4(CCCN4C(C)C)C3)c2)n1 (stereo not drawn) [Example 978, 1-(4-(6′-amino-3-hydroxy-5′-(1-isopropyl-1,7-diazaspiro[4.4]nonan-7-yl)-6-methyl-[2,3′-bipyridin]-4-yl)-2-chlorophenyl)-3-methyl-1H-imidazol-2(3H)-one]	9.00 to 11.00	0.3 to 30 nM	–	–
Cc1cc(-c2ccc(-n3cc[nH]c3=O)c(Cl)c2)c(O)c(-c2cccc(N3CCN(C(C)(C)C)CC3)c2)n1 [Example 1035, 1-(4-(2-(3-(4-(tert-butyl)piperazin-1-yl)phenyl)-3-hydroxy-6-methylpyridin-4-yl)-2-chlorophenyl)-1,3-dihydro-2H-imidazol-2-one]	7.00 to 8.00	30 to 300 nM	–	–
CN1CCN(c2ccc(-c3cccc(-c4cc(C5CC5)nc(N5CCNCC5)c4)c3O)cc2Cl)C1=O [Example 368, 1-(3-chloro-3′-(2-cyclopropyl-6-(piperazin-1-yl)pyridin-4-yl)-2′-hydroxy-[1,1′-biphenyl]-4-yl)-3-methylimidazolidin-2-one]	–	–	8.00 to 9.00	30 to 300 nM
Cn1ccn(-c2ccc(-c3cc(F)cc(-c4cnnc(N5CC[C@](C)(O)C5)c4)c3O)cc2Cl)c1=O [Example 837, (S)-1-(3-chloro-5′-fluoro-2′-hydroxy-3′-(6-(3-hydroxy-3-methylpyrrolidin-1-yl)pyridazin-4-yl)-[1,1′-biphenyl]-4-yl)-3-methyl-1H-imidazol-2(3H)-one]	–	–	9.00 to 11.00	30 to 300 nM
Cn1ccn(-c2ccc(-c3cc(F)cc(-c4ccnc(N5CCNC(c6ccccc6)C5)c4)c3O)cc2Cl)c1=O (stereo not drawn) [Example 631, 1-(3-chloro-5′-fluoro-2′-hydroxy-3′-(2-(3-phenylpiperazin-1-yl)pyridin-4-yl)-[1,1′-biphenyl]-4-yl)-3-methyl-1H-imidazol-2(3H)-one]	–	–	9.00 to 11.00	30 to 300 nM
O=C1CCCN1c1ccc(-c2cc(F)cc(-c3ccnc(N4CCNCC4)c3)c2O)cc1Cl [Example 217, 1-(3-chloro-5′-fluoro-2′-hydroxy-3′-(2-(piperazin-1-yl)pyridin-4-yl)-[1,1′-biphenyl]-4-yl)pyrrolidin-2-one]	–	–	8.00 to 9.00	300 to 3000 nM
